The source of these data is patent US10940139B2, “Compounds that interact with the Ras superfamily for the treatment of cancers, inflammatory diseases, rasopathies, and fibrotic disease” (Shy Therapeutics LLC, priority 2017, dated 2021).

Sequence of KRas G12D/Q61H double mutant (P01116-2 other isoform, or with tags, fused parts or gaps G12D/Q61H): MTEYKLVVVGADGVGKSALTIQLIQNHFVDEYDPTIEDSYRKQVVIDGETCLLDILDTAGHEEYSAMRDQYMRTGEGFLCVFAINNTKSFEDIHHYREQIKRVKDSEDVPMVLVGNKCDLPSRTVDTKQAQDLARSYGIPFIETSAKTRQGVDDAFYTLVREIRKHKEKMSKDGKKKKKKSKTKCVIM

The target in one test is KRas G12D/Q61H double mutant (Homo sapiens (Human), UniProt P01116, G12D/Q61H). The test can be described thus: Ras GTP binding domain inhibition assay (labeled GTP). The conditions noted are these: 20 μM compound; KRas G12D/Q61H double mutant; read-out: % Inhibition at 20 μM of K-Ras mutant and wild-type protein, KRas G12D Q61H. The procedure, abridged:
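Fluorescence read-out of Cy3-/Cy5-GTP remaining bound to nickel-immobilized His-KRas after washes. Protein was coated overnight at 4° C, then exposed to compound for 3 h at room temperature before a 45 min labeled-GTP incubation.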
Regarding `O=C(Cc1ccc2c(c1)OCCO2)Nc1nc(-c2ccccn2)cs1` [drawing 3246], the inhibition at 20 µM was in the range of 1 to 25%.
The same measure, in the same setting: the value for `COc1ccc(-c2csc3nc(C)nc(N(C)Cc4ccco4)c23)cc1OC` was 25 to 50%; that for `COc1cccc(N2CCN(C(=O)c3ccccc3SCC(=O)N3CCc4ccccc43)CC2)c1` was 1 to 25%.
Still for that read-out and setting: the value for `COC(=O)c1ccc(CCSc2nnc(COc3cccc(C)c3)o2)cc1` was 25 to 50%.
Consider `CC(COc1ccc(Oc2ccccc2)cc1)Oc1ccc(C(F)(F)F)cn1` (stereo not shown), for which the inhibition at 20 µM fell in the range of 51 to 75%.
Same read-out and setting: the value for `COC(=O)c1ccc(CN2CCN(c3cccc(C(F)(F)F)c3)CC2)cc1` was 25 to 50%.
For `CCOc1ccc(Nc2ccc([N+](=O)[O-])cc2S(=O)(=O)N(CC)CC)cc1`, the inhibition at 20 µM lay in the range of 25 to 50%.
The same measure, in the same setting: the value for `COC(=O)CCc1sc(NC2CCCCC2)nc1-c1ccc(OC)cc1` was 25 to 50%; that for `O=C(COC1CCCCC1)Nc1nnc(-c2ccccn2)[nH]1` was 51 to 75%; that for `CN(Cc1ccccc1C#N)Cc1ccccc1N1CCCCC1` was 25 to 50%.
As for `CCNC(=O)COc1ccc(CN2CCN(C3CC3)c3ccc(F)cc32)cc1`, the inhibition at 20 µM lay in the range of 1 to 25%.
Still for that read-out and setting: the value for `COc1cccc(-c2nc(C(=O)N3CCC(c4ccccc4)CC3)c[nH]2)c1OC` was 25 to 50%; that for `Cc1cc(C)c2c(N)c(C(=O)OCc3ccc(C(=O)N4CCCC4)cc3)sc2n1` was 1 to 25%; that for `CCc1noc(CN(CCN(Cc2nc(CC)no2)c2ccccc2)c2ccccc2)n1` was 51 to 75%.
Same read-out and setting: the value for `O=C(Cc1ccccc1[N+](=O)[O-])N1CCCC1C1CCCC1` (stereo not shown) was 1 to 25%.
Still for that read-out and setting: the value for `CCOCCOc1ccc(Br)cc1CNCc1cccc(N2CC=CC2)c1` was 25 to 50%.
Take `COc1ccc(CCN/C(=N/C(=O)Nc2ccccc2)Nc2nc(C)cc(C)n2)cc1OC`: the inhibition at 20 µM was 25 to 50%.
Same read-out and setting: the value for `Clc1ccccc1SCCCSc1nnc(N2CCCC2)s1` was 25 to 50%.

Staying with this test, now noted: 20 μM compound; read-out: % Inhibition at 20 μM KRas G12D Q61H.
As to `COc1ccc(OC)c(S(=O)(=O)N(Cc2ccccc2)Cc2ccccc2)c1`, the inhibition at 20 µM fell in the range of 25 to 50%.
The same measure, in the same setting: the value for `COc1ccccc1OCc1ccc(C(=O)N2CCCc3c(F)cc(F)cc32)o1` was 25 to 50%; that for `OC[C@H]1C=C[C@@H](Nc2nc(-c3ccccn3)nc3c2CCC3)C1` was 25 to 50%.
Still for that read-out and setting: the value for `COc1ccccc1CN(Cc1cccs1)C(=O)c1ccc(N2CCCS2(=O)=O)cc1` was 25 to 50%; that for `Cc1nc(C2CCCN2c2nccc(C(F)(F)F)n2)no1` (stereo not shown) was 25 to 50%; that for `O=C(Cc1ccc(OC(F)(F)F)cc1)Nc1nnc(-c2ccccn2)[nH]1` was 25 to 50%.
As for `O=c1nc(-c2ccccn2)[nH]c2c1cnn2-c1cccc(C(F)(F)F)c1`, the inhibition at 20 µM was 25 to 50%.
As to `CCCCN(C(=O)c1nn(-c2ccccc2)nc1C)c1ccccc1`, the inhibition at 20 µM was in the range of 25 to 50%.
On the same count and under the same terms, the value for `CCc1c(C)sc2[nH]c(-c3ccccn3)nc(=O)c12` was 25 to 50%; that for `Cc1ccccc1OCCn1c(CN2CCCCC2)nc2ccccc21` was 25 to 50%; that for `Cc1ccc(-c2cc(C(=O)N(C3CC3)C(C)c3ccco3)on2)cc1` (stereo not shown) was 25 to 50%.
Still for that read-out and setting: the value for `CC1CN(c2nc(-c3ccccn3)nc3c2CCC3)C(C)CN1C` (stereo not shown) was 25 to 50%; that for `CC(c1nc(C(C)(C)C)no1)N(C)CC12CC3CC(CC(C3)C1)C2` (stereo not shown) was 25 to 50%.
With `O=C(COCC1CC1)Nc1nnc(-c2ccccn2)[nH]1`, the inhibition at 20 µM lay within 25 to 50%.
Still for that read-out and setting: the value for `Cc1ccccc1Oc1ncccc1NCc1csc(-c2ccccn2)n1` was 25 to 50%.
Still for that read-out and setting: the value for `COc1ccc(OCCn2c(CN3CCCCC3)nc3ccccc32)cc1` was 1 to 25%; that for `O=C(Nc1nc(-c2ccccn2)cs1)c1cc(F)cc(F)c1` was 1 to 25%; that for `COCC(O)CN1CCC(Nc2nc(-c3ccccn3)nc3c2CCC3)CC1` (stereo not shown) was 25 to 50%.
On the same count and under the same terms, the value for `Cc1oc(-c2ccccc2)nc1CN(C)CC(=O)Nc1ccc(N2CCOCC2)cc1` was 25 to 50%.
Consider `O=C(Nc1nnc(-c2ccccn2)[nH]1)C(F)(F)c1ccccc1`, for which the inhibition at 20 µM fell in the range of 25 to 50%.
The same measure, in the same setting: the value for `O=C(c1csc2c(O)nc(-c3ccccn3)nc12)N1CCNC(c2cccc(F)c2)C1` (stereo not shown) [drawing 2737] was 25 to 50%; that for `COCC1CCN(C(=O)c2csc3c(O)nc(-c4ccccn4)nc23)CC1` [drawing 2675] was 25 to 50%.
Regarding `COCCN(c1nc2ccccc2s1)S(=O)(=O)c1ccccc1`, the inhibition at 20 µM was in the range of 25 to 50%.
With `Cc1noc(CN2CCOC(c3nc(-c4ccccc4)cs3)C2)n1` (stereo not shown), the inhibition at 20 µM was in the range of 1 to 25%.
On the same count and under the same terms, the value for `O=C(c1csc2c(O)nc(-c3ccccn3)nc12)N1CCOC(c2cccc(O)c2)C1` (stereo not shown) was 51 to 75%.
Same read-out and setting: the value for `Cc1cnn(CCC(=O)Nc2nnc(-c3ccccn3)[nH]2)c1` was 25 to 50%; that for `C=CCc1ccc(OCCn2c(CN3CCOCC3)nc3ccccc32)c(OC)c1` was 25 to 50%; that for `CCCCN(C(=O)c1cnn(-c2ccccc2)n1)c1ccccc1` was 25 to 50%.
On the same count and under the same terms, the value for `CC(=O)Nc1cccc(CNc2cc(C)nc(-c3ccccn3)n2)c1` was 25 to 50%; that for `OC1CCC(Nc2nc(-c3ccccn3)nc3scc(-c4ccccc4)c23)CC1` (stereo not shown) was 25 to 50%.
`CC(Oc1ccc(F)cc1)c1nnc(SCCOc2ccc(F)cc2)o1` (stereo not shown): the inhibition at 20 µM lay in the range of 25 to 50%.
The same measure, in the same setting: the value for `O=C(c1csc2c(O)nc(-c3ccccn3)nc12)N1CCNC(c2ccccc2)C1` (stereo not shown) was 25 to 50%; that for `COc1ccccc1CN(Cc1cccs1)C(=O)c1ccc(S(=O)(=O)N2CCOCC2)cc1` was 1 to 25%.
On the same count and under the same terms, the value for `O=C(Nc1nc(-c2ccccn2)cs1)c1ccc(=O)n(Cc2ccccc2)n1` was 25 to 50%.

Staying with this test, now noted: 20 μM; read-out: KRas G12D Q61H % Inh.
On to `CN(CC(=O)Nc1nnc(-c2ccccn2)[nH]1)S(C)(=O)=O` [drawing 2496], for which the inhibition at 20 µM fell in the range of 51 to 75%.
For `O=C(Nc1nnc(-c2ccccn2)[nH]1)C1CC(=O)N(CCc2ccccc2)C1` (stereo not shown) [drawing 2494], the inhibition at 20 µM lay in the range of 51 to 75%.
Same read-out and setting: the value for `O=C(Cc1ccc2c(c1)OCCO2)Nc1nnc(-c2ccccn2)[nH]1` [drawing 2551] was 51 to 75%.
On the same count and under the same terms, the value for `Cc1c(C(=O)Nc2nnc(-c3ccccn3)[nH]2)oc2c1C(=O)CCC2` [drawing 2477] was 51 to 75%; that for `Cc1ccc(-c2ccc(Oc3ccc(C(F)(F)F)cn3)c(C)c2)cc1` [drawing 2621] was 51 to 75%; that for `O=C(Nc1nnc(-c2ccccn2)[nH]1)C1Cc2ccccc2O1` (stereo not shown) [drawing 2509] was 51 to 75%.
On the same count and under the same terms, the value for `O=C(Nc1nnc(-c2ccccn2)[nH]1)C1Cc2cc(Cl)ccc2O1` (stereo not shown) [drawing 2548] was 51 to 75%; that for `Oc1ccc(C2(c3cccc(Cl)c3)CCCC2)cc1` [drawing 2620] was 25 to 50%; that for `CCn1nnc2cc(C(=O)Nc3nnc(-c4ccccn4)[nH]3)ccc21` [drawing 2507] was 51 to 75%.
Regarding `CNC(=O)c1sc2[nH]c(-c3ccccn3)nc(=O)c2c1C` [drawing 2584], the inhibition at 20 µM was 25 to 50%.
For `O=C(Nc1nc(-c2ccccn2)cs1)c1ccc2[nH]cnc2c1` [drawing 2571], the inhibition at 20 µM is 51 to 75%.

The test is the same for the next values; noted with them: at 20 μM; read-out: KRas G12D Q61H % Inh.
For the compound `Oc1nc(-c2ccccn2)nc2c(-c3cnc4ccccc4c3)csc12` [drawing 3780], the inhibition at 20 µM lay in the range of 25 to 50%.
